Results reported in ChEMBL document CHEMBL6177982, “Structural Optimization of Pyrazole Compounds as Hsp90 Regulators with Enhanced Antitumor Activity” (J Med Chem, 2025).
Active and inactive are the calls of the source. The rule behind the calls is not given here.

Key:
[1] = AUC (0 to infinity) in male Sprague-Dawley rat at 10 mg/kg, IG by LC-MS/MS analysis; format: ADME, organism-based; conditions: in vivo, po
[2] = system: HCT-116; assay: Antiproliferative activity against CDC37 knockout human HCT-116 cells assessed as inhibition of cell proliferation incubated for 72 hrs by MTT assay; format: functional, cell-based; conditions: HCT-116, 72 h
[3] = target: T1, Heat shock protein HSP 90-beta/Hsp90 co-chaperone Cdc37 (Homo sapiens) (UniProt P08238+Q16543); assay: Inhibition of Myc-tagged HSP90 (unknown origin)/CDC37 (unknown origin) protein-protein interaction transfected in human HCT-116 cells incubated for 12 hrs by co-immunoprecipitation analysis; format: cell-based; conditions: dose 0.5-5 µM
[4] = Volume of distribution at steady state in male Sprague-Dawley rat at 1 mg/kg, iv by LC-MS/MS analysis; format: ADME, organism-based; conditions: in vivo, read-out: Vdss
[5] = target: T2, Heat shock protein HSP 90-alpha (Homo sapiens, UniProt P07900); assay: Binding affinity to His-tagged HSP90alpha (unknown origin) assessed as dissociation constant by SPR analysis
[6] = AUC (0 to infinity) in male Sprague-Dawley rat at 1 mg/kg, iv by LC-MS/MS analysis; format: ADME, organism-based; conditions: in vivo
[7] = system: HT-29; assay: Antiproliferative activity against human HT-29 cells assessed as inhibition of cell proliferation incubated for 72 hrs by MTT assay; format: functional, cell-based; conditions: HT-29, 72 h
[8] = Toxicity in female Balb/c nude mouse xenografted with human HCT-116 cells assessed as effect on kidney weight at 5 to 30 mg/kg, ip administered every two days for 14 days; format: organism-based; conditions: in vivo, 336 h, dose 5-30 mg/kg, time 14 day
[9] = target: T2, Heat shock protein HSP 90-alpha; assay: Binding affinity to HSP90alpha (unknown origin) assessed as dissociation constant by ITC analysis
[10] = Toxicity in female Balb/c nude mouse xenografted with human HCT-116 cells assessed as pathological changes in kidney at 5 to 30 mg/kg, ip administered every two days for 14 days by H and E staining based analysis; format: organism-based; conditions: in vivo, 336 h, dose 5-30 mg/kg, time 14 day
[11] = system: CT26; assay: Antiproliferative activity against mouse CT26 cells assessed as inhibition of cell proliferation incubated for 72 hrs by MTT assay; format: functional, cell-based; conditions: CT26, 72 h
[12] = AUC (0 to infinity) in male Sprague-Dawley rat at 5 mg/kg, ip by LC-MS/MS analysis; format: ADME, organism-based; conditions: in vivo
[13] = system: HCT-116; assay: Antiproliferative activity against human HCT-116 cells assessed as inhibition of cell proliferation incubated for 24 hrs by MTT assay; format: functional, cell-based; conditions: HCT-116, 24 h
[14] = target: T1, Heat shock protein HSP 90-beta/Hsp90 co-chaperone Cdc37 (Homo sapiens); assay: Inhibition of His-tagged HSP90(unknown origin)/GST-tagged CDC37 (unknown origin) protein-protein interaction at 100 uM preincubated with HSP90 for 1 hrs followed by CDC37 addition and measured after 1 hrs by HTRF assay relative to control; format: protein-complex assay
[15] = system: Mus musculus; assay: Upregulation of HSP90 protein level in female Balb/c mouse tumor xenografted with human HCT-116 cells at 5 to 30 mg/kg, ip administered every two days for 14 days by Western blot analysis; format: functional, organism-based; conditions: dose 5-30 mg/kg, time 14.0 day
[16] = system: HCT-116; assay: Inhibition of Myc-tagged HSP90 C598A mutant (unknown origin)/CDK4 (unknown origin) protein-protein interaction transfected in human HCT-116 cells at 1 to 5 uM incubated for 12 hrs by co-immunoprecipitation analysis; format: cell-based; conditions: dose 1-5 µM
[17] = Half-life in male Sprague-Dawley rat at 5 mg/kg, ip by LC-MS/MS analysis; format: ADME, organism-based; conditions: in vivo
[18] = target: T3, Heat shock protein HSP90 (Homo sapiens) (UniProt P07900+P08238); assay: Covalent binding affinity to wildtype His-tagged C-terminal HSP90 (unknown origin) assessed as two phase melting curve at 100 uM incubated for 4 hrs by SYPRO fluorescent dye based thermal shift assay; format: protein assay
[19] = Half-life in male Sprague-Dawley rat at 10 mg/kg, IG by LC-MS/MS analysis; format: ADME, organism-based; conditions: in vivo, po
[20] = Cmax in male Sprague-Dawley rat at 5 mg/kg, ip by LC-MS/MS analysis; format: ADME, organism-based; conditions: in vivo
[21] = Clearance in male Sprague-Dawley rat at 5 mg/kg, ip by LC-MS/MS analysis; format: ADME, organism-based; conditions: in vivo
[22] = Toxicity in female Balb/c nude mouse xenografted with human HCT-116 cells assessed as pathological changes in lung at 5 to 30 mg/kg, ip administered every two days for 14 days by H and E staining based analysis; format: organism-based; conditions: in vivo, 336 h, dose 5-30 mg/kg, time 14 day
[23] = system: HCT-116; assay: Inhibition of Myc-tagged HSP90 (unknown origin)/AKT(unknown origin) protein-protein interaction transfected in human HCT-116 cells at 1 to 5 uM incubated for 12 hrs by co-immunoprecipitation analysis; format: cell-based; conditions: dose 1-5 µM
[24] = Stability of compound in simulated gastric fluid at 100 uM incubated for 12 hrs; format: physicochemical; conditions: simulated gi fluid
[25] = Toxicity in female Balb/c nude mouse xenografted with human HCT-116 cells assessed as effect on liver weight at 5 to 30 mg/kg, ip administered every two days for 14 days; format: organism-based; conditions: in vivo, 336 h, dose 5-30 mg/kg, time 14 day
[26] = Metabolic stability in rat liver microsomes assessed as terminal elimination half-life at 1 uM preincubated for 5 mins followed by NADPH addition and measured up to 120 mins by LC-MS/MS analysis; format: ADME, Microsome; conditions: time < 125 min, read-out: LambdaZ (converted)
[27] = Clearance in male Sprague-Dawley rat at 1 mg/kg, iv by LC-MS/MS analysis; format: ADME, organism-based; conditions: in vivo
[28] = Tmax in male Sprague-Dawley rat at 1 mg/kg, iv by LC-MS/MS analysis; format: ADME, organism-based; conditions: in vivo
[29] = system: HCT-116; assay: Induction of CDK4 degradation in human HCT-116 cells incubated for 24 hrs by Western blot analysis; format: cell-based; conditions: dose 0.1-5 µM
[30] = system: HCT-116; assay: Antiproliferative activity against human HCT-116 cells assessed as inhibition of cell proliferation incubated for 72 hrs by MTT assay; format: functional, cell-based; conditions: HCT-116, 72 h
[31] = system: Mus musculus; assay: Upregulation of HSP70 protein level in female Balb/c mouse tumor xenografted with human HCT-116 cells at 5 to 30 mg/kg, ip administered every two days for 14 days by Western blot analysis; format: functional, organism-based; conditions: dose 5-30 mg/kg, time 14.0 day
[32] = Apparent volume of distribution in male Sprague-Dawley rat at 1 mg/kg, iv by LC-MS/MS analysis; format: ADME, organism-based; conditions: in vivo, read-out: Vz
[33] = system: MCF7; assay: Antiproliferative activity against human MCF7 cells assessed as inhibition of cell proliferation incubated for 72 hrs by MTT assay; format: functional, cell-based; conditions: MCF7, 72 h
[34] = target: T3, Heat shock protein HSP90 (Homo sapiens); assay: Induction of thermal stabilization of HSP90 in human HCT-116 cells at 10 uM at 53 to 55 degreeC by CETSA based Western blot analysis; format: cell-based
[35] = system: HT-1080; assay: Antiproliferative activity against human HT-1080 cells assessed as inhibition of cell proliferation incubated for 72 hrs by MTT assay; format: functional, cell-based; conditions: HT-1080, 72 h
[36] = Permeability of compound at pH 7.4 incubated for 4 hrs by PAMPA based UV analysis; format: ADME; conditions: read-out: permeability
[37] = Stability of compound in simulated intestinal fluid at 100 uM incubated for 12 hrs; format: physicochemical; conditions: simulated gi fluid
[38] = Apparent volume of distribution in male Sprague-Dawley rat at 5 mg/kg, ip by LC-MS/MS analysis; format: ADME, organism-based; conditions: in vivo

**Q.** Which results are given for `O=S(=O)(/C=C/c1cn(-c2ccccc2)nc1-c1cccnc1)c1ccccc1`?
**A.** AUC(0-inf) [1]: 9810 ng·h/mL; IC50 [2]: > 50000 nM; inhibition [3]: Dose-dependent-effect; Vd [4]: 0.52 L/kg; Kd [5]: 1370 nM; AUC(0-inf) [6]: 1460 ng·h/mL; IC50 [7]: 2020 nM; Activity [8]: Non-toxic; Kd [9]: 3960 nM; Activity [10]: Non-toxic; IC50 [11]: 1970 nM; AUC(0-inf) [12]: 6770 ng·h/mL; IC50 [13]: 6360 nM; inhibition [14]: 92.9%; Activity [15]: inactive; inhibition [16]: inactive; half-life [17]: 82.2 min; Activity [18]: Active; half-life [19]: 121 min; Cmax [20]: 8350 ng/mL; CL/F [21]: 12.2 mL/min/kg; Activity [22]: Non-toxic; inhibition [23]: Active; Stability [24]: Stable; Activity [25]: Non-toxic; half-life at 1 µM [26]: 25.2 min; clearance [27]: 11.8 mL/min/kg; Tmax [28]: 1.02 min; Activity [29]: Dose-dependent-effect; IC50 [30]: 1080 nM; Activity [31]: inactive; Vd [32]: 0.86 L/kg; IC50 [33]: 2340 nM; Activity [34]: Active; IC50 [35]: 2710 nM; Papp at 4 h [36]: 42.6 ×10⁻⁶ cm/s; Stability [37]: Stable; Vz [38]: 0.97 L/kg
